# Source: US20100048604A1, “Ligands for Aldoketoreductases” (priority 2004, published 2010)
# Biological target: T1, AKR1C3 (Homo sapiens, UniProt P42330)
# T1 construct: gift of Professor Trevor Penning (University of Pennsylvania School of Medicine)
# T1 sequence (P42330 1-323): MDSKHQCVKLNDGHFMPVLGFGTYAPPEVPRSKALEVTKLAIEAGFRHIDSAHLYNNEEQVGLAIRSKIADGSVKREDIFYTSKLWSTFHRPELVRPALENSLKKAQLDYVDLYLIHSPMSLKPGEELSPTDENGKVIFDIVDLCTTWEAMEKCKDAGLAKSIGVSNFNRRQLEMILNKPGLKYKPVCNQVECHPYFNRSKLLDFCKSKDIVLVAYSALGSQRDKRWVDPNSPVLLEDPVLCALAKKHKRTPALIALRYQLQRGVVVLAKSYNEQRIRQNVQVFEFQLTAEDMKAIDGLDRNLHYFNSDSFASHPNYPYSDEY
# Experiment: Determination of kinetic parameters for AKR1C3 (fluorogenic substrate 5)
# Format: biochemical
# Method: Whether the activity of human enzymes may be imaged by probe 5 was investigated. Type 2 isozyme of 3α-HSD (AKR 1C3) was selected for this study owing to its important physiological role.
# Fluorogenic substrate 5 reduction was monitored on a Hitachi F-4500 fluorimeter in Starna quartz cuvettes fluorometrically in 1 mL systems containing 100 mM potassium phosphate pH 6.0 containing excess of NADPH cofactor (250 μM) and various amounts of the substrate (0.1953-50 μM) dissolved in 4% acetonitrile. […] Cuvettes were mixed thoroughly after addition of cofactor, cosolvent, and substrate. Reactions were initiated by the addition of 4 μL of dilute AKR1C3 (115 μg/mL) and were corrected for nonenzymatic rates. All reactions were followed by monitoring the increase in fluorescence of the product alcohol for 5 minutes at λem 510 nm with λex 440 nm (Excitation and emission band pass slits both at 2.5 nm, lamp 900 V) at 37° C. The initial velocities, expressed in units of nanomoles per minute, were calculated according to previously published procedures (Wierzchowski, J.; Dafeldecker, W. P.; Holmquist, B.; Vallee, B. L. Anal. Biochem. 1989, 178, 57-62): initial rate=[nst×(Ft−F0)/(Fst)]/t where Ft and F0 represent the fluorescence at time t and 0, nst is the nanomoles of the product standard, and Fst is the fluorescence resulting from nst of product. Kinetic constants were approximated using the GraFit (Erithacus Software, Surrey, UK) non-linear regression analysis program to fit the untransformed data to a hyperbolic function as originally described (Wilkinson, G. N. Biochem. J. 1961, 80, 324-332), yielding estimated values of kcat, Km, and their associated standard errors.
# [1] = 100 mM potassium phosphate pH 6.0, 250 μM NADPH, 37° C.
# [2] = Type 2 isozyme of 3α-HSD (AKR 1C3)
smiles,measurement,setting,value
"CC(=O)c1cc(=O)oc2c3c4c(cc12)CCCN4CCC3 [compound 5, 8-Acetyl-2,3,5,6-tetrahydro-1H,4H-11-oxa-3a-aza-benzo[de]anthracen-10-one]",Kcat,[1],0.1374 s⁻¹
same,Km,[1],2.46 µM
same,Spec. activity,[1],0.226 µmol/min/mg
same,Vmax,[1],0.1039 nmol/min
same,Kcat,[2],0.137 s⁻¹
same,Km,[2],2.5 µM
